Read-outs that look alike come from different tables or passages of the source.
Assays:
[1] = biological target: T1, CKα1 (Homo sapiens, UniProt P35790); experiment: Choline kinase assay ([methyl-14C]choline into PCho, purified enzyme); type: biochemical; settings: for IC50: concentration required to inhibit CKα1 enzyme by 50%; for % Inhibition at 10 µM: purified CKα1, inhibitor 10 µM; for % Inhibition at 10 µM / % Inhibition at 30 µM: end-point assay; for % Inhibition at 30 µM: purified CKα1, inhibitor 30 µM
T1 construct: an N-terminally His-tagged truncated form of CKα1 (Δ75–457) was cloned into a pET-28a vector; His tag (N); made in house; host or cells: E. coli BL21 (DE3) Star
T1 sequence (P35790 75-457): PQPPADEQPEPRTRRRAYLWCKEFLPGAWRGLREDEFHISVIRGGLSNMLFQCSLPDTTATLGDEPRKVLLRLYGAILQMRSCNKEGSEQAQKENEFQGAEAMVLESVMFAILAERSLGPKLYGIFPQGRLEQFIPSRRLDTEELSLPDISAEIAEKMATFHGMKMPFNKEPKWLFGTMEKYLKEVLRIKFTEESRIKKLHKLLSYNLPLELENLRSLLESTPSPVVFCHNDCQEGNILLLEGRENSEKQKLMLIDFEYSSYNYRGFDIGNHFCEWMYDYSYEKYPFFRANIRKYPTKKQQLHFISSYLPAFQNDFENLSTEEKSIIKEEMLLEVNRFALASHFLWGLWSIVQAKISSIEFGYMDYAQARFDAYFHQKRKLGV
Procedure: The protein was produced and purified as previously described. Briefly, an N-terminally His-tagged truncated form of CKα1 (Δ75–457) was cloned into a pET-28a vector and expressed at 37 °C in E. coli BL21 (DE3) Star cells using 1 mM isopropyl β-D-1-thiogalactopyranoside (IPTG). After centrifugation, the cellular pellet was resuspended in 50 mM Tris-HCl pH 7.5, 500 mM NaCl, 0.2 mM phenylmethylsulphonyl fluoride (PMSF), DNase, and 0.5 mM β-mercaptoethanol, sonicated and subjected to a two-step purification procedure to isolate the target enzyme. […] Protein elution was completed using buffer A + 400 mM imidazole. A second size-exclusion chromatography step was then carried out to achieve complete purity. To this end, we used a HiPrep 26/60 Sephacryl 100 HR column (GE Healthcare, Little Chalfont, Buckinghamshire, UK) and a 20 mM Tris/HCl pH 7.5, 150 mM NaCl running buffer.
To study the effect of the compounds on CKα, an in vitro enzymatic assay was performed using the purified enzyme as previously reported in [19, 28, 29]. Briefly, the incorporation of ^14C from [methyl-^14C]choline into PCho in either the absence (control) or presence of different inhibitors at varying concentrations was used to determine the CK activity. The reaction mixture included 20 ng of purified CKα1, 10 mM ATP, 10 mM MgCl2, 100 mM Tris-HCl pH 8.5, and increasing concentrations of compounds. The mixture was preincubated at 37 °C for 5 min. Then, [methyl-^14C]choline chloride (1 mM, 4500 dpm/nmol) was added and the reaction was left to proceed for 10 min at 37 °C. The assay was stopped by immersing the reaction tubes in boiling water. PCho was separated by Thin Layer Chromatography using methanol/0.6% NaCl/28% NH4OH in water (50:50:5, v/v/v) as solvent. The radioactivity associated into PCho was determined in a Beckman 6000-TA (Madrid, Spain) liquid scintillation counter. The 50% inhibitory concentrations (IC50 values) were determined from the % enzyme activity at different concentrations of synthetic inhibitors relative to the control by using a sigmoidal dose–response curve (ED50plus v1.0 software).

[2] = test system: HL-60; experiment: Antiproliferative activity, resazurin assay, 72 h; type: cell-based, human
Procedure: (§1) Human cervix carcinoma (HeLa), Non-small lung adenocarcinoma (A549), Colon adenocarcinoma (HT29), and human triple negative breast cancer (MDA-MB-231) were cultured in Dulbecco’s modified Eagle’s media (DMEM). B-acute lymphoblastic leukemia (RS4;11 and SEM), T-acute lymphoblastic leukemia (Jurkat), and human promyelocytic cells (HL-60), were cultured in RPMI-1640 medium. Both media were purchased from Gibco, Life Technologies (Milan, Italy) and supplemented with 10% Fetal Bovine Serum (FBS, Invitrogen, Milan, Italy,). Every six months, each cell line was checked for the presence of mycoplasma by RT-PCR.
(§2) Stock solutions (10 mM) of the different compounds were made in DMSO. Cancer cells were seeded in tissue-treated, flat bottom, 384-well plates (Corning) according to their optimal density, (A549 1000 cells/wells; MDA-MB-231, HeLa and HT-29 2000 cells/well and finally Jurkat, HL-60 SEM and RS4;11 20.000 cells/well) in 27 µL of complete medium per well.
(§3) The day after cell seeding and immediately before cell treatment, 10 mM stock solutions of the compounds were pre-diluted to a […] concentration in 250 µL of Hank’s in a 96-well plate (Corning). Subsequent 1:5 dilutions were carried out using a microlab STAR 96-CORE liquid handling system (Hamilton), a robotized liquid handling tool that was employed for all steps, from cell seeding to drug dilution and cell treatment to ensure high reproducibility while reducing time for large screening execution. This pre-dilution step was necessary to avoid DMSO-related cytotoxicity and compound precipitation in the cell culture medium. In every case, DMSO concentration never exceeded 0.1%.
(§4) Positive (Bortezomib 1 µM) and negative (0.1% DMSO) controls were included in all the screened plates to allow for monitoring the Z’ factor throughout the entire screening. Cells were treated with 3 µL of the previously made dilutions; thus, generating a 6-point 5-fold dose–response curve starting from 10 µM. Within a plate, each drug concentration was tested in duplicate in two independent experiments for each compound.
(§5) Treated cells were then placed inside the CO2 incubator for 72 h at 37 °C. Cell viability was assessed by resazurin assay, in which 3 µL of resazurin per well were added using the previously described automated platform. Plates were placed in the incubator at 37 °C for 2 h, and then the fluorescence of each plate was read using a Spark 10 M multimode microplate reader (Tecan Group Ltd., Mannedorf, Switzerland) with 535 nm excitation wavelength and 600 nm emission wavelength.

[3] = test system: HeLa; experiment: Antiproliferative activity, resazurin assay, 72 h; type: cell-based, human
Procedure: as §1, §2, §3, §4, §5

[4] = test system: HT29; experiment: Antiproliferative activity, resazurin assay, 72 h; type: cell-based, human
Procedure: as §1, §2, §3, §4, §5

[5] = test system: SEM cells; experiment: Antiproliferative activity, resazurin assay, 72 h; type: cell-based, human
Procedure: as §1, §2, §3, §4, §5

[6] = test system: MDA-MB-231; experiment: Antiproliferative activity, resazurin assay, 72 h; type: cell-based, human
Procedure: as §1, §2, §3, §4, §5

[7] = test system: RS 4;11; experiment: Antiproliferative activity, resazurin assay, 72 h; type: cell-based, human
Procedure: as §1, §2, §3, §4, §5

[8] = test system: A549; experiment: Antiproliferative activity, resazurin assay, 72 h; type: cell-based, human
Procedure: as §1, §2, §3, §4, §5

[9] = test system: Jurkat; experiment: Antiproliferative activity, resazurin assay, 72 h; type: cell-based, human
Procedure: as §1, §2, §3, §4, §5

| Compound | IC50 [1] [nM] | % Inhibition at 10 µM [1] [%] | % Inhibition at 30 µM [1] [%] | GI50 [2] [nM] | GI50 [3] [nM] | GI50 [4] [nM] | GI50 [5] [nM] | GI50 [6] [nM] | GI50 [7] [nM] | GI50 [8] [nM] | GI50 [9] [nM] | inhibition at 5 µM ([1]; purified CKα1, inhibitor 5 µM, read-out: percentage inhibition at 5 µM) [%] | GI50 ([2]; Homo sapiens, HL-60) [nM] | GI50 ([3]; Homo sapiens, HeLa) [nM] | GI50 ([4]; Homo sapiens, HT-29) [nM] | GI50 ([5]; Homo sapiens) [nM] | GI50 ([6]; Homo sapiens, MDA-MB-231) [nM] | GI50 ([7]; Homo sapiens, RS4-11) [nM] | GI50 ([8]; Homo sapiens, A549) [nM] | GI50 ([9]; Homo sapiens, Jurkat) [nM] |
| --- | --- | --- | --- | --- | --- | --- | --- | --- | --- | --- | --- | --- | --- | --- | --- | --- | --- | --- | --- | --- |
| [Br-].[Br-].c1cc2c(s1)c(N1CCCCC1)nc[n+]2Cc1ccc(-c2ccc(C[n+]3cnc(N4CCCCC4)c4sccc43)cc2)cc1 [Fa-24] | 2330 ± 210 | 84.64 | 98.40 | 7280 ± 1100 | 7080 ± 1300 | > 10000 | > 10000 | 700 ± 70 | > 10000 | 1170 ± 200 | > 10000 |  |  |  |  |  |  |  |  |  |
| [Br-].[Br-].c1cc2c(s1)c(N1CCCCC1)nc[n+]2Cc1ccc(CCCCc2ccc(C[n+]3cnc(N4CCCCC4)c4sccc43)cc2)cc1 [Fa-33] | 1670 ± 80 | 98.90 | 97.80 | 140 ± 10 | 280 ± 20 | 1070 ± 100 | 1370 ± 70 | 410 ± 20 | 760 ± 100 | 160 ± 10 | 1460 ± 100 |  |  |  |  |  |  |  |  |  |
| [Br-].[Br-].c1cc2c(N3CCCC3)nc[n+](Cc3ccc(-c4ccc(C[n+]5cnc(N6CCCC6)c6ccsc65)cc4)cc3)c2s1 [Fg-14] | 4870 ± 570 | 80.28 | 94.14 | 1350 ± 100 | 2530 ± 800 | 4160 ± 1000 | > 10000 | 940 ± 90 | > 10000 | 280 ± 20 | > 10000 |  |  |  |  |  |  |  |  |  |
| [Br-].[Br-].c1cc2c(s1)c(N1CCCC1)cc[n+]2Cc1ccc(-c2ccc(C[n+]3ccc(N4CCCC4)c4sccc43)cc2)cc1 [Fg-9] | ≥ 5000 | 75.81 | 94.95 | 9120 ± 1100 | > 10000 | > 10000 | > 10000 | 2020 ± 200 | > 10000 | 250 ± 20 | > 10000 |  |  |  |  |  |  |  |  |  |
| [Br-].[Br-].c1cc2c(N3CCCC3)nc[n+](Cc3ccc(CCCCc4ccc(C[n+]5cnc(N6CCCC6)c6ccsc65)cc4)cc3)c2s1 [Ff-3] | ≥ 5000 | 74.17 | 80.09 | 210 ± 30 | 630 ± 20 | 1330 ± 10 | 3700 ± 400 | 360 ± 30 | 2050 ± 100 | 210 ± 20 | 7540 ± 1500 |  |  |  |  |  |  |  |  |  |
| [Br-].[Br-].c1cc2c(N3CCCC3)nc[n+](Cc3ccc(OCCOc4ccc(C[n+]5cnc(N6CCCC6)c6ccsc65)cc4)cc3)c2s1 [Ff-4] | ≥ 10000 | 55.23 | 77.28 | 790 ± 50 | > 10000 | > 10000 | > 10000 | 720 ± 30 | > 10000 | 230 ± 30 | > 10000 |  |  |  |  |  |  |  |  |  |
| [Br-].[Br-].c1cc2c(s1)c(N1CCCC1)nc[n+]2Cc1ccc(-c2ccc(C[n+]3cnc(N4CCCC4)c4sccc43)cc2)cc1 [Fa-21] | ≥ 5000 | 74.57 | 86.58 | 3400 ± 700 | > 10000 | > 10000 | > 10000 | 1710 ± 400 | > 10000 | 220 ± 10 | > 10000 |  |  |  |  |  |  |  |  |  |
| c1cc2c(s1)c(N1CCCCCC1)nc[n+]2Cc1ccc(CCCCc2ccc(C[n+]3cnc(N4CCCCCC4)c4sccc43)cc2)cc1 [Fa-29] | 1080 ± 70 |  |  |  |  |  |  |  |  |  |  | 85 | 550 ± 20 | 840 ± 40 | 1090 ± 200 | 1770 ± 200 | 500 ± 20 | 1600 ± 100 | 140 ± 20 | 5230 ± 800 |
| [Br-].[Br-].c1cc2c(s1)c(N1CCCC1)nc[n+]2Cc1ccc(CCCCc2ccc(C[n+]3cnc(N4CCCC4)c4sccc43)cc2)cc1 [Ff-7] | 8570 ± 2800 | 89.95 | 95.88 | 400 ± 50 | 870 ± 50 | 1480 ± 40 | 2930 ± 200 | 470 ± 40 | 2330 ± 300 | 210 ± 30 | 8610 ± 1300 |  |  |  |  |  |  |  |  |  |
| [Br-].[Br-].c1cc2c(s1)c(N1CCCC1)cc[n+]2Cc1ccc(OCCOc2ccc(C[n+]3ccc(N4CCCC4)c4sccc43)cc2)cc1 [Ff-2] |  | 77.41 | 82.77 | 2140 ± 100 | 3260 ± 400 | > 10000 | > 10000 | 1430 ± 200 | > 10000 | 1060 ± 100 | > 10000 |  |  |  |  |  |  |  |  |  |
| CN(c1ccccc1)c1nc[n+](Cc2ccc(-c3ccc(C[n+]4cnc(N(C)c5ccccc5)c5sccc54)cc3)cc2)c2ccsc12 [Fp-1] | 1060 ± 220 |  |  | 510 ± 50 | 1660 ± 10 | 1430 ± 30 | 4550 ± 500 | 900 ± 20 | 2120 ± 200 | 210 ± 20 | > 10000 |  |  |  |  |  |  |  |  |  |

From paper PMC9032693, “Biological Evaluation of New Thienopyridinium and Thienopyrimidinium Derivatives as Human Choline Kinase Inhibitors” (Pharmaceutics, 2022)
